# Experimental data: patent US11179342B2, “Peptide coacervates and methods of use thereof” (NANYANG TECHNOLOGICAL UNIVERSITY, priority 2018, dated 2021)
# Residues, ends and D or L forms follow the SMILES beside them.
# What was measured:
# [1] = tested on: NIH3T3 mouse fibroblasts; test: MTT assay; format: cell-based
# Protocol: NIH3T3 mouse fibroblasts were used to estimate the cytotoxicity of DgHBP-2 peptide and coacervates. The fibroblasts were cultivated using Dulbecco's modified eagle medium supplemented with 10% of fetal bovine serum, 100 units/mL of penicillin and 100 μg/mL of streptomycin in a 37° C. incubator with 5% CO2. 100 μL of cells with a cell density of 1×10^4 cells/mL were seeded onto a 96-well plate (Thermo Fisher Scientific). After 24 hours, the cell culture media was substituted with 100 μL of fresh media containing different concentration of peptide or insulin-loaded coacervates. After another 24 hours, 10 μL of MTT solution (concentration: 5 mg/mL) was added into each well. Cell culture media and the excess MTT was then removed after 4 hours of incubation. 100 μL of DMSO was subsequently added into each well to dissolve the formazan crystals. The dissolved crystals were then measured at 570 nm on a 96-well microplate reader (Infinity M200, Tecan). Relative cell viability is calculated as:
# [formula] where At, Ac, and Ab represent absorbance values of wells containing tested cells, control cells and DMSO, respectively. In Vitro Release Assay (Timepoint Assay)
# [2] = Encapsulation of Dox and MNPs by coacervates; format: physicochemical; conditions: DgHBP-2-peptide coacervates
# Protocol: Dox (Final concentration: 0.04 mg mL^−1) and MNPs (Final concentration: 0.008% v/v) were first added to phosphate buffer (pH 9.5 0.1M) to their final concentrations. DgHBP-2 peptide stock solution (10 mg mL^−1) was successively added to the buffer/drug mixture in a 1:9 ratio to trigger encapsulation and coacervation. Gentle pipetting was then done to mix the final mixture.
# [3] = cited from earlier work
encapsulation efficiency of Dox [2],unencapsulated Dox [2],Compound,cytotoxicity [1],pKa [3]
–,–,"CC(C)C[C@H](NC(=O)CNC(=O)[C@H](Cc1c[nH]cn1)NC(=O)CNC(=O)[C@H](Cc1ccc(O)cc1)NC(=O)[C@@H]1CCCN1C(=O)CNC(=O)[C@H](Cc1c[nH]cn1)NC(=O)CNC(=O)[C@H](Cc1ccc(O)cc1)NC(=O)[C@@H]1CCCN1C(=O)CNC(=O)[C@H](Cc1c[nH]cn1)NC(=O)CNC(=O)[C@H](Cc1ccc(O)cc1)NC(=O)[C@@H](NC(=O)CNC(=O)[C@H](Cc1c[nH]cn1)NC(=O)CNC(=O)[C@H](Cc1ccc(O)cc1)NC(=O)[C@@H](NC(=O)CNC(=O)[C@H](Cc1c[nH]cn1)NC(=O)CN)C(C)C)C(C)C)C(=O)N[C@@H](Cc1ccc(O)cc1)C(=O)N[C@@H](Cc1c[nH]c2ccccc12)C(=O)O [DgHBP-2 peptide, GHGVYGHGVYGHGPYGHGPYGHGLYW] (H-GHGVYGHGVYGHGPYGHGPYGHGLYW-OH)",negligible,–
~40%,60%,"COc1cccc2c1C(=O)c1c(O)c3c(c(O)c1C2=O)C[C@@](O)(C(=O)CO)C[C@@H]3O[C@H]1C[C@H](N)[C@H](O)[C@H](C)O1 [Dox, Doxorubicin]",–,~8.46
